# Laboratory results taken from US12138256B2, “Treatment of cardiopulmonary disorders” (Bayer Aktiengesellschaft, priority 2021, dated 2024).
# Where “and” joins values, the source holds several entries; their conditions need not be identical. Equal values may be shown once.
# How the values were obtained:
# [1] = Particle size distribution by laser diffraction with dry dispersion; type: physicochemical; settings: after micronization, dry measurement (3 or 4 bar)
# Description: All measurements cited in the above tables were obtained by laser diffraction with dry dispersion using compressed air. Measuring in aqueous suspension with surfactants may lead to smaller particle sizes (×90 up to 1 μm smaller).
# The particle size analysis data are usually reported as cumulative undersized distribution by volume. The symbol x is used to denote the particle size, which is defined as diameter of a volume equivalent sphere. Most common characteristic values are calculated from the particle size distribution by interpolation. Frequently used are the particle sizes at the undersize values of 10%, 50% and 90% of the volume distribution, denoted as x10, x50 and x90. x50 is also known as median particle size. The symbol d is widely used to designate the particle size, thus the symbol x may be replaced by the symbol d.
# [2] = system: isolated Langendorff-perfused rat heart; test: Isolated perfused heart according to Langendorff: perfusion pressure and wash-out score (C-1.2); settings: 100 nmol/l
# Description: Male Wistar rats (strain HsdCpb:WU) with a body weight of 200-250 g were anaesthetized with Narcoren® (100 mg/kg). The thorax was opened and the heart was then exposed, excised and connected to a Langendorff apparatus by placing a cannula into the aorta. The heart was perfused retrogradely at 9 ml/min at constant flow with a Krebs-Henseleit buffer solution (gassed with 95% O2 and 5% CO2, pH 7.4, 35° C.; composition in mmol/l: NaCl 118; KCl 3; NaHCO3 22; KH2PO4 1.2; MgSO4 1.2; CaCl2 1.8; Glucose 10; Na pyruvate 2). A pressure transducer registered the perfusion pressure in the perfusion system. The left ventricular pressure (LVP) was measured using a second pressure transducer connected to a water-filled balloon which was inserted into the left ventricle via the left atrium. The end diastolic pressure was initially set to 8 mm Hg by adjusting the volume of the balloon. The hearts were spontaneously beating. The signals from the pressure transducer were amplified, registered by a personal computer (Powerlab Chart software, ADInstruments).
# Then the hearts were perfused for a further 120 min without the test substance (wash-out phase). The reversibility of the effect (wash-out score) was calculated as a percentage of the PP recovery after 60 min of washout related to the maximum drop of PP induced by the test compound. The wash-out score obtained in this manner was taken as a measure for the residence time of the test substance at the site of action.
# [3] = system: thromboxane analog U46619 induced PAH in minipigs; test: Haemodynamics (PAP, BP) in the anesthetized thromboxane challenged PAH minipig after inhaled (nebulized) application (C-2.1); type: in vivo, Göttingen minipig
# Description: Experiments were carried out in anesthetized Göttingen minipigs, anesthetized rats and conscious, telemetrically instrumented dogs. Acute pulmonary hypertension was induced for example by infusion of a thromboxane A2 analogon, by acute hypoxia treatment or hypoxia treatment over a number of weeks and/or by administration of monocrotaline. Test substances were applied via nebulization using the Nebutec® or Aeroneb® Pro nebulizer system, and/or by means of powder and/or solution applicators for experimental intratracheal administration (Liquid MicroSprayer®, Dry Powder Insufflator™, MicroSprayer®, Penn-Century Inc., Wyndmoor, PA, USA) or after solid nebulization inserted into the inspiration arm of the ventilation. Compounds were employed as solids or solutions depending on the molecular structure and the technical possibility depending on the experiment. The haemodynamic signals were recorded and evaluated by means of pressure transducers/amplifiers (Combitransducer B. Braun, Melsungen, Germany or CardioMEMS Inc., Atlanta, GA, USA) and Ponemah® or CardioMems® as data aquisition software. After long-term experiments (for example monocrotaline rat), it is also possible to carry out a histological evaluation.
# Healthy Gottingen Minipigs® Ellegaard (Ellegaard, Denmark) of both sexes and having a weight of 2-6 kg were used. The animals were sedated by i.m. administration of about 25 mg/kg ketamine and about 10 mg/kg azaperone. Anaesthesia was initiated by i.v. administration of about 2 mg/kg ketamine and about 0.3 mg/kg midazolam. Maintenance of anaesthesia was by i.v. administration of about 7.5-30 mg/kg/h ketamine and about 1-4 mg/kg/h midazolam (rate of infusion 1-4 ml/kg/h) and about 150 μg/kg/h pancuronium bromide (for example Pancuronium-Actavis). After intubation, the animals were ventilated by the ventilator at a constant respiratory volume (10-12 ml/kg, 35 breaths/min; Avea®, Viasys Healthcare, USA, or Engstrom Carestation, GE Healthcare, Freiburg, Germany) such that an end-tidal CO2 concentration of about 5% was achieved. Ventilation was performed with room air, enriched with about 40% oxygen (normoxia). For the measurement of the haemodynamic parameters such as pulmonary arterial pressure (PAP), blood pressure (BP) and heart rate (HR), catheters were inserted into the carotid artery to measure the blood pressure, and a Swan-Ganz® catheter was introduced in a flow-directed manner via the jugular vein into the pulmonary artery. The haemodynamic signals were recorded and evaluated by means of pressure transducers (Combitransducer, B. Braun, Melsungen, Germany)/amplifiers and Ponemah® as data aquisition software.
# After the instruments have been placed into the animals, continuous infusion of a thromboxane A2 analog was initiated to increase the pulmonary arterial pressure. […] D0400, or Cayman Chemical Company, cat. no. 16440), dissolved in physiological saline, were infused to achieve an increase of the mean pulmonary arterial pressure to values of over 25 mmHg. 30 minutes after the start of the infusion, a plateau was reached, and the experiment was started.
# The test substances were administered as i.v. infusion or by inhalation. For the preparation of the solution for inhalation, the following procedure was adopted: For an animal having a weight of 4 kg, to prepare the stock solution (300 μg/kg), 1.2 mg of the test compound were weighed out and dissolved in a total volume of 3 ml (1% DMSO, 99% 0.2% strength citric acid solution, 1 N aqueous sodium hydroxide solution to adjust the pH to 8). The solution was then diluted to the concentration employed using 0.2% strength citric acid which had been adjusted to pH 8 beforehand with aqueous sodium hydroxide solution. In each test, 3 ml of the solution of test compound per 4 kg animal were nebulized in the inhalation arm of the respiratory circuit using the Aeroneb® Pro nebulizer system. The mean nebulization time was about 7 min from the start of the nebulization.
# [4] = inhaled 3μg/kg, 0 min vs. start inhalation
# [5] = inhaled 3μg/kg, 10 min vs. start inhalation
# [6] = inhaled 3μg/kg, 20 min vs. start inhalation
# [7] = inhaled 3μg/kg, 30 min vs. start inhalation
# [8] = inhaled 3μg/kg, 40 min vs. start inhalation
# [9] = inhaled 3μg/kg, 50 min vs. start inhalation
# [10] = inhaled 3μg/kg, 60 min vs. start inhalation
# [11] = inhaled 3μg/kg, 70 min vs. start inhalation
# [12] = inhaled 3μg/kg, 80 min vs. start inhalation
# [13] = inhaled 3μg/kg, 90 min vs. start inhalation
# [14] = inhaled 3μg/kg, −5 min vs. start inhalation
molecule,measurement,setting,value
O.O=C(O)c1ccc(CCN(CCc2ccccc2OCc2ccc(-c3ccc(C(F)(F)F)cc3)cc2Cl)[C@H]2CCCc3nc(C(=O)O)ccc32)cc1 [8g],PSD X10,[1],"X10: 0,5 μm,"
same,PSD X50,[1],"X50: 1.8 μm,"
same,PSD X90,[1],X90: 3.9 μm
O.O=C(O)c1ccc(CCN(CCc2ccccc2OCc2ccc(-c3ccc(C(F)(F)F)cc3)cc2Cl)[C@H]2CCCc3nc(C(=O)O)ccc32)cc1 [example 8e],PSD X10,[1],"X10: 0.7 μm,"
same,PSD X50,[1],"X50: 2.1 μm,"
same,PSD X90,[1],X90: 6.1 μm
O.O=C(O)c1ccc(CCN(CCc2ccccc2OCc2ccc(-c3ccc(C(F)(F)F)cc3)cc2Cl)[C@H]2CCCc3nc(C(=O)O)ccc32)cc1 [8c],PSD X10,[1],"X10: 0.4 μm,"
same,PSD X50,[1],"X50: 1.8 μm,"
same,PSD X90,[1],X90: 4.8 μm
"Ethyl 5-{[2-(2-{[3-chloro-4′-(trifluoromethyl)biphenyl-4-yl]methoxy}phenyl)ethyl]amino}-5,6,7,8-tetrahydroquinoline-2-carboxylate [example 8a]",PSD X10,[1],"X10: 0.4 μm,"
same,PSD X50,[1],"X50: 1.7 μm,"
same,PSD X90,[1],X90: 4.2 μm
O=C(O)CCCCN(CCc1ccccc1OCc1ccc(CCc2ccccc2)cc1)Cc1ccc(C(=O)O)cc1 [Cinaciguat (comparative example 1)],Wash-out score (%) after 60 min,[2],29.5%
same,Perfusion pressure (%) (timepoint at 20 min) Mean,[2]; isolated Langendorff-perfused rat heart,62.1%
same,Perfusion pressure (%) (timepoint at 90 min) Mean,[2]; wash-out phase,69.3%
same,% changes in BP vs baseline,[3]; [4],100% and 99%
same,% changes in PAP vs baseline,[3]; [4],99%
same,% changes in BP vs baseline,[3]; [5],91% and 89%
same,% changes in PAP vs baseline,[3]; [5],101% and 100%
same,% changes in BP vs baseline,[3]; [6],76% and 82%
same,% changes in PAP vs baseline,[3]; [6],99% and 98%
same,% changes in BP vs baseline,[3]; [7],74% and 86%
same,% changes in PAP vs baseline,[3]; [7],98%
same,% changes in BP vs baseline,[3]; [8],73% and 89%
same,% changes in PAP vs baseline,[3]; [8],97% and 98%
same,% changes in BP vs baseline,[3]; [9],82% and 94%
same,% changes in PAP vs baseline,[3]; [9],97% and 98%
same,% changes in BP vs baseline,[3]; [10],88% and 94%
same,% changes in PAP vs baseline,[3]; [10],97% and 99%
same,% changes in BP vs baseline,[3]; [11],100% and 99%
same,% changes in PAP vs baseline,[3]; [11],97% and 100%
same,% changes in BP vs baseline,[3]; [12],103% and 100%
same,% changes in PAP vs baseline,[3]; [12],95% and 98%
same,% changes in BP vs baseline,[3]; [13],105% and 102%
same,% changes in PAP vs baseline,[3]; [13],95% and 99%
same,% changes in BP vs baseline,[3]; [14],100%
same,% changes in PAP vs baseline,[3]; [14],100%
same,% changes in PAP vs baseline,"[3]; inhaled 10 μg/kg, 0 min vs. start inhalation",100% and 101%
same,% changes in PAP vs baseline,"[3]; inhaled 10 μg/kg, 10 min vs. start inhalation",100%
same,% changes in PAP vs baseline,"[3]; inhaled 10 μg/kg, 20 min vs. start inhalation",96% and 100%
same,% changes in PAP vs baseline,"[3]; inhaled 10 μg/kg, 30 min vs. start inhalation",94% and 100%
same,% changes in PAP vs baseline,"[3]; inhaled 10 μg/kg, 40 min vs. start inhalation",95% and 98%
same,% changes in PAP vs baseline,"[3]; inhaled 10 μg/kg, 50 min vs. start inhalation",94% and 96%
same,% changes in PAP vs baseline,"[3]; inhaled 10 μg/kg, 60 min vs. start inhalation",95% and 94%
same,% changes in PAP vs baseline,"[3]; inhaled 10 μg/kg, 70 min vs. start inhalation",93% and 94%
same,% changes in PAP vs baseline,"[3]; inhaled 10 μg/kg, 80 min vs. start inhalation",94% and 92%
same,% changes in PAP vs baseline,"[3]; inhaled 10 μg/kg, 90 min vs. start inhalation",93% and 89%
same,% changes in PAP vs baseline,"[3]; inhaled 10 μg/kg, −5 min vs. start inhalation",100%
O.O=C(O)c1ccc(CCN(CCc2ccccc2OCc2ccc(-c3ccc(C(F)(F)F)cc3)cc2Cl)[C@H]2CCCc3nc(C(=O)O)ccc32)cc1 [8f],PSD X10,[1],"X10: 0.6 μm,"
same,PSD X50,[1],"X50: 2.4 μm,"
same,PSD X90,[1],X90: 6.3 μm
